Test results as given in US20100022542A1, “COMPOUNDS EXHIBITING THROMBOPOIETIN RECEPTOR AGONISM” (Shionogi & Co., Ltd., priority 2000, published 2010).

The compounds below were run against T1, human TPO receptor (hTPOR) (Homo sapiens, UniProt P40238) (assay: Proliferation of TPO dependent BaF/hTPOR cells, WST-1, thrombopoietic activity ED50 (Test Example 3)). Settings: 20 h incubation then WST-1 4 h, absorbance at 450 nm.
T1 construct: expressed in transfected cells; host or cells: BaF-B03 (murine IL-3 dependent cell line)
T1 sequence (P40238 26-635): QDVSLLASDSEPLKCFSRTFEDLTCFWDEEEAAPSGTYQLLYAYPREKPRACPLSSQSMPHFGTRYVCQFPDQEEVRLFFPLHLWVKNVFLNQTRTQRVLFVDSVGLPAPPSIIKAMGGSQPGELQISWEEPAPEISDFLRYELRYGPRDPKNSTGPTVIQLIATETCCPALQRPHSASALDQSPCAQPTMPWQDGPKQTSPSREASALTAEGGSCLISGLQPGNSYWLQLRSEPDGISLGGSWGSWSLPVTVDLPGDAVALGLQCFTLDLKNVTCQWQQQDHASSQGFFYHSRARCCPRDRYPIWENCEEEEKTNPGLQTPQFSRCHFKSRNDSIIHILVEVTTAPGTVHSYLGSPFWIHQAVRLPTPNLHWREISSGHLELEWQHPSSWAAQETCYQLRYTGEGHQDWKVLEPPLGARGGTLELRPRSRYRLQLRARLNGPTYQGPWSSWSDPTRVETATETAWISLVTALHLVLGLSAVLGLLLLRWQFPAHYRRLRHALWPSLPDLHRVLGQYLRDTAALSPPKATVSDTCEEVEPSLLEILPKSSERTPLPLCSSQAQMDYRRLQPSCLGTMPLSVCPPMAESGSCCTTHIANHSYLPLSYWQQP
Assay type: cell-based
Excerpt: FIG. 2: The chart represents proliferation of the human TPO dependent cells bearing human TPO receptors by the present invention compound, wherein the x-axis is concentration of the present invention compound, and the y-axis is the absorbance as an indicator of cell proliferation. Open circles indicate a response of human TPO, and closed circles indicate a response of the compound (B-1).
The TPO dependent BaF/hTPOR cell line which was established by introducing human TPO receptor (hTPOR) into BaF-B03 cells according to Collins et al (J. Cell. Physiol., 137:293-298 (1988)) was used to test the thrombopoietic activity of the present compound. The DNA sequences and encoded peptide sequences for human hTPOR have been described by Vigon et al (Proc. Natl. Acad. Sci. USA, 89:5640-5644 (1992)). TPO dose not have any ability to support proliferation of interleukin-3 dependent parental cell line BaF-B03. BAF/hTPOR cells were maintained in RPMI medium and WEHI-3B conditioned medium as a source of murine interleukin-3 (IL-3). These cells were washed and resuspended in RPMI medium without a source of murine IL-3 and seeded into each well of 96-well microtiter plates at a density of 5×10^4 cells per well in the absence or presence of various concentration of hTPO or the present compound. After incubation at 37° C. for 20 hours in the 5% CO2 incubator, 10% WST-1 reagent (Takara Biomedicals, Japan) was added to each wells and the cells were further incubated for 4 hours. Effect of the present compound on the growth of BAF/mTPOR cell line which was established by introducing murine TPO receptor (mTPOR) into BAF-B03 cells is shown in FIG. 3. Table 8 exemplifies the ED50 for tested compounds of the present invention, wherein the ED50 is the half concentration of the concentration showing the maximum thrombopoietic activity.

EC50 [nM]	SMILES
123	CC(=Cc1ccc(C(=O)Nc2nc(-c3ccc(Cl)c(Cl)c3)cs2)cc1)C(=O)N(C)C [Compound B-5]
213	C/C(=C\c1ccc(C(=O)Nc2nc(-c3ccc(Cl)c(Cl)c3)cs2)cc1)C(=O)NCc1ccc(C(F)(F)F)cc1 [Compound B-13]
321	COC(=O)C#Cc1ccc(C(=O)Nc2nc(-c3ccc(Cl)c(Cl)c3)cs2)cc1OC [Compound L-3]
207	C/C(=C\c1ccc(C(=O)Nc2nc(-c3ccc(Cl)c(Cl)c3)cs2)cc1)C(=O)Nc1cccnc1 [Compound B-12]
367	C/C(=C\c1ccc(C(=O)Nc2nc(-c3ccc(F)c(F)c3)cs2)cc1)C(N)=O [Compound B-25]
305	C/C(=C\c1ccc(C(=O)Nc2nc(-c3ccc(Cl)c(Cl)c3)cs2)cc1)C(=O)NCc1ccc(F)cc1 [Compound B-14]
119	O=C(O)/C(Cl)=C/c1ccc(C(=O)Nc2nc(-c3cccc(F)c3F)cs2)cc1 [Compound A-72]
299	O=C(O)CCc1ccc(C(=O)Nc2nc(-c3ccc(Cl)c(Cl)c3)cs2)cc1 [Compound G-2]
430	CC(Cc1ccc(C(=O)Nc2nc(-c3ccc(Cl)c(Cl)c3)cs2)cc1)C(=O)O (stereo not shown) [Compound G-3]
222	O=C(O)/C(F)=C/c1ccc(C(=O)Nc2nc(-c3ccc(F)cc3)cs2)cc1 [Compound A-68]
378	CC(=Cc1ccc(C(=O)Nc2nc(-c3ccc(Cl)c(Cl)c3)cs2)cc1)C(=O)N1CCOCC1 [Compound B-8]
729	C/C(=C\c1ccc(C(=O)Nc2nc(-c3ccc(Cl)c(Cl)c3)cs2)cc1)C(=O)NC(C)(C)C [Compound B-39]
44	CCOC(=O)/C(Cl)=C/c1ccc(C(=O)Nc2nc(-c3ccc(C(F)(F)F)cc3)cs2)cc1 [Compound A-39]
65	O=C(O)/C(Cl)=C/c1ccc(C(=O)Nc2nc(-c3cccc(-c4ccccc4)c3)cs2)cc1 [Compound A-54]
984	CCOC(=O)C(=Cc1ccc(C(=O)Nc2nc(-c3ccc(Cl)c(Cl)c3)cs2)cc1)CC [Compound A-5]
71	O=C(O)/C(Cl)=C/c1ccc(C(=O)Nc2nc(-c3cccc(Br)c3F)cs2)cc1 [Compound A-81]
398	C/C(=C\c1ccc(C(=O)Nc2nc(-c3ccc(Cl)c(Cl)c3)cs2)cc1)C(=O)NC[Si](C)(C)C [Compound B-34]
164	CCCCOc1ccc(-c2csc(NC(=O)c3ccc(/C=C(\Cl)C(=O)O)cc3)n2)cc1 [Compound A-59]
365	CC(=Cc1ccc(C(=O)Nc2nc(-c3ccc(F)c(F)c3)cs2)cc1)C(=O)O [Compound A-10]
182	C/C(=C\c1ccc(C(=O)Nc2nc(-c3ccc(Cl)c(Cl)c3)cs2)cc1)C(=O)NCc1ccco1 [Compound B-16]
248	CCC(=Cc1ccc(C(=O)Nc2nc(-c3ccc(Cl)c(Cl)c3)cs2)cc1)C(=O)O [Compound A-6]
529	CC(C(=O)O)=C(C)c1ccc(C(=O)Nc2nc(-c3ccc(Cl)c(Cl)c3)cs2)cc1 [Compound A-8]
71	O=C(O)/C(Cl)=C/c1ccc(C(=O)Nc2nc(-c3ccc(Br)cc3F)cs2)cc1 [Compound A-69]
472	O=C(O)/C(Cl)=C/c1ccc(C(=O)Nc2nc(-c3ccc4c(c3)CCO4)cs2)cc1 [Compound A-74]
95	O=C(O)/C(Cl)=C/c1ccc(C(=O)Nc2nc(-c3ccc(F)c(F)c3)cs2)cc1 [Compound A-36]
473	CC(C)(C)c1ccc(-c2csc(NC(=O)c3ccc(/C=C(\Cl)C(=O)O)cc3)n2)cc1 [Compound A-48]
199	COc1cccc(-c2csc(NC(=O)c3ccc(/C=C(\Cl)C(=O)O)cc3)n2)c1F [Compound A-82]
274	O=C(O)/C(Cl)=C/c1ccc(C(=O)Nc2nc(-c3cccc(F)c3)cs2)cc1 [Compound A-30]

EC50 [nM]	SMILES
190	C=CCNC(=O)/C(C)=C/c1ccc(C(=O)Nc2nc(-c3ccc(Cl)c(Cl)c3)cs2)cc1 [Compound B-41]
408	CSc1ccc(-c2csc(NC(=O)c3ccc(/C=C(\Cl)C(=O)O)cc3)n2)cc1 [Compound A-78]
244	CC/C(=C\c1ccc(C(=O)Nc2nc(-c3ccc(Cl)c(Cl)c3)cs2)cc1)C(N)=O [Compound B-17]
240	O=C(Nc1nc(-c2ccc(Cl)c(Cl)c2)cs1)c1ccc(CC(Cl)C(=O)O)cc1 (stereo not shown) [Compound G-4]
116	Cc1sc(NC(=O)c2ccc(/C=C(\Cl)C(=O)O)cc2)nc1-c1cccc(Br)c1 [Compound J-13]
245	O=C(O)/C(Cl)=C/c1ccc(C(=O)Nc2nc(-c3ccc(F)cc3)cs2)cc1 [Compound A-38]
174	CC(=Cc1ccc(C(=O)Nc2nc(-c3ccc(Cl)c(Cl)c3)cs2)cc1)S(=O)(=O)N(C)C [Compound F-1]
11	CCCCCc1cccc2c1CCc1sc(NC(=O)c3ccc(/C=C(\Cl)C(=O)O)cc3)nc1-2 [Compound J-15]
150	CC/C(=C\c1ccc(C(=O)Nc2nc(-c3ccc(Cl)c(Cl)c3)cs2)cc1)C(=O)NC [Compound B-18]
239	C/C(=C\c1ccc(C(=O)Nc2nc(-c3ccc(Cl)c(Cl)c3)cs2)cc1)C(=O)NC1CCCC1 [Compound B-38]
23	O=C(O)/C(Cl)=C/c1ccc(C(=O)Nc2nc(-c3ccc(C(F)(F)F)cc3F)cs2)cc1 [Compound A-60]
84	CCNC(=O)C(C)=Cc1ccc(C(=O)Nc2nc(-c3ccc(Cl)c(Cl)c3)cs2)cc1 [Compound B-6]
98	C/C(=C\c1ccc(C(=O)Nc2nc(-c3ccc(C(F)(F)F)cc3)cs2)cc1)C(=O)O [Compound A-26]
568	O=C(O)/C(Cl)=C/c1ccc(C(=O)Nc2nc(-c3c(F)cccc3F)cs2)cc1 [Compound A-51]
565	C/C(=C\c1ccc(C(=O)Nc2nc(-c3ccc(Cl)c(Cl)c3)cs2)cc1)C(=O)NCCC(=O)O [Compound B-28]
71	O=C(O)/C(F)=C/c1ccc(C(=O)Nc2nc(-c3ccc(Cl)c(Cl)c3)cs2)cc1 [Compound A-43]
504	CCOC(=O)C(C)=Cc1ccc(C(=O)Nc2nc(-c3ccc(F)c(F)c3)cs2)cc1 [Compound A-9]
198	CC(=Cc1ccc(C(=O)Nc2nc(-c3ccc(Cl)c(Cl)c3)cs2)cc1)S(N)(=O)=O [Compound F-3]
410	O=C(O)/C(Cl)=C/c1ccc(C(=O)Nc2nc(-c3cc(C(F)(F)F)ccc3F)cs2)cc1 [Compound A-79]
39	CCOC(=O)/C(Cl)=C/c1ccc(C(=O)Nc2nc(-c3cccc(C(F)(F)F)c3)cs2)cc1 [Compound A-41]
181	C/C(=C\c1ccc(C(=O)Nc2nc(-c3ccc(Cl)c(Cl)c3)cs2)cc1)C(=O)NN(C)C [Compound B-29]
260	COC(=O)C(Cl)Cc1ccc(C(=O)Nc2nc(-c3ccc(Cl)c(Cl)c3)cs2)cc1 (stereo not shown) [Compound G-5]
218	CCOC(=O)/C=C/c1ccc(C(=O)Nc2nc(-c3ccc(Cl)c(Cl)c3)cs2)cc1 [Compound A-3]
56	CCOC(=O)/C(Cl)=C/c1ccc(C(=O)Nc2nc(-c3cccc(OC(F)(F)F)c3)cs2)cc1 [Compound A-31]
276	CC(=Cc1ccc(C(=O)Nc2nc(-c3ccc(Cl)c(Cl)c3)cs2)cc1)c1ncc[nH]1 [Compound D-1]
370	O=C(Nc1nc(-c2ccc(Cl)c(Cl)c2)cs1)c1ccc(CC(F)C(=O)O)cc1 (stereo not shown) [Compound G-6]
36	Cc1sc(NC(=O)c2ccc(/C=C(\Cl)C(=O)O)cc2)nc1-c1cccc(C(F)(F)F)c1 [Compound J-14]
